# Laboratory results as given in PMC11257039, “VCP activator reverses nuclear proteostasis defects and enhances TDP-43 aggregate clearance in multisystem proteinopathy models” (The Journal of Clinical Investigation, 2024).
# Values joined by “and” are separate entries in the source; they are usually repeats but may differ in a detail not shown here. Equal values may be shown once.
# Experiments:
# [1] = biological target: T1, WT VCP + Ufd1/Nploc4 (Mus musculus, UniProt Q01853); assay: Kinase-Glo ATPase assay, WT VCP with UFD1/NPLOC4 (UN); format: biochemical; settings: for ATP consumed: WT VCP with UN
# T1 construct: in the full-length recombinant VCP; His (N); made in house; host or cells: E. coli (VCP: BL21-CodonPlus (DE3)-RIL; UFD1 and NPLOC4: E. coli (DE3), purified by the MD Anderson core)
# T1 sequence (Q01853 whole entry): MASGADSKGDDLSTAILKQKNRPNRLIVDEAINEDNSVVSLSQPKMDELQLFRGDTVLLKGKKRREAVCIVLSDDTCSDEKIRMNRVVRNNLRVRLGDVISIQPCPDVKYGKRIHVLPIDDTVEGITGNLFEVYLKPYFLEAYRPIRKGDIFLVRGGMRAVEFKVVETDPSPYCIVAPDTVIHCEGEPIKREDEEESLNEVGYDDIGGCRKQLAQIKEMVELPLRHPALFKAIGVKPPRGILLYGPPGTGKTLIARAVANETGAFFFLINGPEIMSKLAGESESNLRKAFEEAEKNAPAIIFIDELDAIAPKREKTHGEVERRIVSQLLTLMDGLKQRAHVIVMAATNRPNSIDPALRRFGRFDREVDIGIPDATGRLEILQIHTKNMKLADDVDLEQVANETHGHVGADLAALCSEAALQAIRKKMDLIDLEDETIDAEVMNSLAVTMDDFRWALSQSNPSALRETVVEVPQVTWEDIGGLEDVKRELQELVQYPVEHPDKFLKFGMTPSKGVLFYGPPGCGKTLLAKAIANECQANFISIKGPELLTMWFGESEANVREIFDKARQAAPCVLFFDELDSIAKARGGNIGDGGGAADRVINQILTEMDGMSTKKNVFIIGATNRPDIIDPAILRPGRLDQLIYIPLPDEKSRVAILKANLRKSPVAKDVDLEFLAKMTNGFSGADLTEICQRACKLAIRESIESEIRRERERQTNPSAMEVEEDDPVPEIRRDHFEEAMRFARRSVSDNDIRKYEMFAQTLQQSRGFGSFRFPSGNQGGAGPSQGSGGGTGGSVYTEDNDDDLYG
# T1 sequence (Q92890 whole entry partner): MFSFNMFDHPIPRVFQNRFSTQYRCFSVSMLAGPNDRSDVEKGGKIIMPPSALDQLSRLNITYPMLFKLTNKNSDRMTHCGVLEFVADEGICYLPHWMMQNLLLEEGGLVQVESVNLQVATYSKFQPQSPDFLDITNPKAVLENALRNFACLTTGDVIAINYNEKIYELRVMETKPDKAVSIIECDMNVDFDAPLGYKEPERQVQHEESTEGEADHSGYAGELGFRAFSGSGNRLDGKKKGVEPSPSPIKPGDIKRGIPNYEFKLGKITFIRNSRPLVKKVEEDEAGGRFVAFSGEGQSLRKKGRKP
# T1 sequence (Q8TAT6 whole entry partner): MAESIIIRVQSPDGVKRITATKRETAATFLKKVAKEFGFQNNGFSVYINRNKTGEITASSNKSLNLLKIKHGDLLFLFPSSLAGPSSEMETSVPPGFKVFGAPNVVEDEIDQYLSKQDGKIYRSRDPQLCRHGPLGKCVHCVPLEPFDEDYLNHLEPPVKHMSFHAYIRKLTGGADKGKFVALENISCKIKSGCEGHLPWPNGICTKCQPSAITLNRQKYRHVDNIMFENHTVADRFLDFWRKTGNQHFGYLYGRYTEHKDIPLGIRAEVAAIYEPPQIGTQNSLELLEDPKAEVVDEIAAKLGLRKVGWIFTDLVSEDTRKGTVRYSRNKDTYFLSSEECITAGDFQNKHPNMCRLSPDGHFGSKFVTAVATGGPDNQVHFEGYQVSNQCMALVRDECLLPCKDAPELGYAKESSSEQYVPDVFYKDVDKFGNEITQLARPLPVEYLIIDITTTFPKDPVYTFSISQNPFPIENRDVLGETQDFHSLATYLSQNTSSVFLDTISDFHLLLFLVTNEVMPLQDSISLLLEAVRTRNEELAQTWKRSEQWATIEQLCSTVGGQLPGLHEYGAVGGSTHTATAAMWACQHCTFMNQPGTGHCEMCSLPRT
# Procedure, shortened: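 Mouse VCP (50 nM), alone or with 50 nM UFD1/NPLOC4, was incubated 1 h at 25 °C with 62.5 μM ATP and a range of compound concentrations in HEPES pH 7.5, 100 mM NaCl, 10 mM MgCl2, 2% DMSO. Remaining ATP was read by Kinase-Glo luminescence. Dose data were fit to a 3-parameter curve; ATP-varied data were fit to Michaelis-Menten.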
# [2] = biological target: T2, A232E VCP (Mus musculus, UniProt Q01853, A232E); assay: MESG-PNP ATPase assay, recombinant A232E VCP; format: biochemical
# T2 construct: in the full-length recombinant VCP; His (N); made in house; host or cells: Escherichia coli BL21-CodonPlus (DE3)-RIL
# T2 sequence (Q01853 whole entry A232E): as the sequence (Q01853 whole entry) above, with A232E counted along it
# Procedure, shortened: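 Phosphate release (MESG-PNP, A360) from 50 nM recombinant mouse VCP mutant, with 25 μM compound versus 2% DMSO, at 1mM ATP. Read >15 min at 25°C, quantified against a phosphate standard curve; initial velocity from linear fit of the linear portion.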
smiles,measurement,setting,value
COCCNC(=O)NC(=O)COC(=O)c1cc([N+](=O)[O-])ccc1Sc1nc(C)cs1 [UP109],change in EC50 with UN compared to without UN,[1],non-significant decreases
same,change in maximum percent activity with UN compared to without UN,[1],significantly decreased
same,EC50,"[1]; WT VCP + Ufd1/Nploc4, 1:1 molar ratio",13.4 µM
same,ATP consumed,[1]; 1.56 μM compound,1.207 nmol and 1.374 nmol and 1.037 nmol
same,ATP consumed,[1]; 3.13 μM compound,1.252 nmol and 1.505 nmol and 1.198 nmol
same,ATP consumed,[1]; 6.25 μM compound,1.448 nmol and 1.727 nmol and 1.392 nmol
same,ATP consumed,[1]; 12.5 μM compound,1.655 nmol and 1.932 nmol and 1.557 nmol
same,ATP consumed,[1]; 25 μM compound,1.893 nmol and 2.050 nmol and 1.818 nmol
same,ATP consumed,[1]; 50 μM compound,2.078 nmol and 2.217 nmol and 1.927 nmol
same,ATP consumed,[1]; 100 μM compound,2.107 nmol and 2.355 nmol and 2.018 nmol
same,ATP consumed,[1]; 200 μM compound,1.978 nmol and 2.301 nmol and 2.081 nmol
same,ATPase activity of A232E VCP,"[2]; 25 μM compound, 1 mM ATP, 50 nM VCP",increases ATPase activity
same,"ATPase activity, nmol Pi / nmol VCP / s","[2]; VCP Mutation A232E, replicate values",1.176 nmol Pi / nmol VCP / s and 1.282 nmol Pi / nmol VCP / s and 1.456 nmol Pi / nmol VCP / s
